Assay results as given in patent US7476670B2, “Purine derivatives, method for preparing, pharmaceutical compositions and novel use” (Aventis Pharma S.A., priority 2003, dated 2009).
Counter-ions that a name gives are not always drawn. Like-named read-outs stand apart in the source and are kept apart here.

Legend:
Type in all cases: biochemical
Abl kinase = test: Assay for inhibition of Abl activity; details: fluorescence polarization
Description: The inhibition of the kinase activity is determined by fluorescence polarization, the Abl kinase phosphorylates a peptide detected by adding an anti-phosphopeptide antibody coupled to a fluorescent label.
The assay is carried out in a final volume of 50 μl; all the reagents are prepared in a buffer: • 20 mM Hepes/NaOH pH 7.5 • 5 mM MgCl2 • 100 μM Na2VO4 • 1 mM DTT • 100 μM EDTA/NaOH • 0.01% Brij35 5 μl of the 10-times concentrated inhibitor are added to 25 μl of enzyme (1000 U/ml final concentration), (Calbiochem ref 102555). After incubation for 5 minutes at ambient temperature, 10 μL of PolyGT (400 ng/ml final concentration) and 10 μL of ATP (5 μM final concentration) are added. The detection is carried out after incubation for 15 minutes at 30° C. • Results obtained expressed as percentage inhibition at 20 μM • Example 24 100% • Example 2 100% • Example 32 100% 6) Assay for Inhibition of ZAP Kinase Activity

[1] = target: Cyclin Dependent kinase 2 (CDK2) (Homo sapiens, UniProt P24941); test: Assay for inhibition of CDK2 activity; details: [33P]ATP, read-out: percentage inhibition at 20 μM
Description: The inhibition of the kinase activity of Cyclin Dependent kinase 2 (CDK2) is determined by measuring the phosphorylation of its substrate peptide.
The assay is carried out in a final volume of 50 μl.
The incubation buffer as follows:
• 50 mM Hepes/NaOH pH 7.5 • 10 mM MgCl2 • 1 mM DTT 5 μl of the 10-times concentrated inhibitor are added to 25 μl of incubation buffer containing 0.8 U/μL final concentration of the enzyme; 10 μL of incubation buffer containing 0.0025 mg/ml of peptide substrate are then added and, finally, 10 μL of incubation buffer containing 2 mM ATP and radiolabeled ATP, [^33P]ATP (0.25 μCi), are added. The reaction is stopped after incubation for 10 minutes at 37° C. • Results obtained expressed as percentage inhibition at 20 μM • Example 2 97% • Example 27 97% • Example 30 99% 4) Assay for Inhibition of CDK1 Activity

GSK3beta = GSK3beta (Homo sapiens, UniProt P49841); test: Assay for inhibition of GSK3beta activity; details: [33P]ATP; read-out: IC50s expressed as micromolar
Description: (§1) The inhibition of the kinase activity is determined by measuring the phosphorylation of its substrate peptide.
The assay is carried out in a final volume of 40 μl; all the reagents are prepared in a buffer: • 50 mM HEPES pH 7.5 • 0.03% triton X100 • 10 mM MgCl2 • 5% Glycerol • 1 mM DTT 10 μl of the 10-times concentrated inhibitor are added to 5 μl of enzyme (20 ng final concentration), and 5 μl of peptide (1 μM final concentration) then 2.5 μof incubation buffer containing 16 μM ATP and 2.5 μl of radiolabeled ATP, [^33P]ATP (50 nCi) are added. After incubation for 15 minutes at ambient temperature, 10 μl of incubation buffer containing 1 μM of substrate.

CaCiv1 = CaCiv1 (Candida albicans, UniProt A0A1D8PH53); test: Assay for inhibition of CIV-CDK (CIV1) activity
Excerpt: 1) Assay for Inhibition of CIV-CDK (CIV1) Activity
a) Preparation of the Reagents

JNK3 kinase = JNK3 kinase (Homo sapiens, UniProt P53779); test: Assay for inhibition of JNK3 activity; details: fluorescence polarization, ATP 6 μM; read-out: IC50s expressed as micromolar
Description: The inhibition of the kinase activity is determined by fluorescence polarization, the JNK3 kinase phosphorylates a peptide detected by adding an anti-phosphopeptide antibody coupled to a fluorescent label.
The assay is carried out in a final volume of 30 μl; all the reagents are prepared in a buffer: • 50 mM HEPES pH 7.5 • 0.03% triton X100 • 10 mM MgCl2 • 5% Glycerol • 1 mM DTT 10 μl of the 10-times concentrated inhibitor are added to 5 μl of enzyme (40 ng final concentration), and 5 μl of incubation buffer containing 100 ng of substrate and 10 μl of ATP (6 μM final concentration) are added.

PLK1 = PLK1 (Homo sapiens, UniProt P53350); test: Assay for inhibition of PLK1 activity; details: [33P]ATP; read-out: IC50s expressed as micromolar
Description: as §1
The assay is carried out in a final volume of 40 μl; all the reagents are prepared in a buffer: • 50 mM HEPES pH 7.5 • 0.03% triton X100 • 10 mM MgCl2 • 5% Glycerol • 1 mM DTT 10 μl of the 10-times concentrated inhibitor are added to 5 μl of enzyme (75 ng final concentration), and 5 μl of peptide (1 μM final concentration), then 2.5 μl of incubation buffer containing 40 μM ATP and 2.5 μl of radiolabeled ATP, [^33P]ATP (500 nCi), are added. After incubation for 15 minutes at ambient temperature, 10 μl of incubation buffer containing 192 nM of substrate. […] Reference method for broth dilution antifungal susceptibility testing of yeasts. Approved Standard M27-A. NCCLS, Villanova, Pa.); the minimum concentration with which a visible decrease is observed in the cloudiness of the cell growth (at least 80% compared to a control without product) is the Minimum Inhibitory Concentration (MIC) of the antifungal agent with respect to the strain tested.

SRC kinase = target: T1, SRC kinase (Homo sapiens, UniProt P12931); test: Assay for inhibition of SRC kinase activity; details: fluorescence polarization, read-out: percentage inhibition at 20 μM
T1 construct: purchased Upstate Biotechnology 14-117
Description: 2) Assay for Inhibition of SRC Kinase Activity
The inhibition is determined by fluorescence polarization, the […] kinase phosphorylates a peptide detected by adding an anti-phosphopeptide antibody coupled to a fluorescent label.
The assay is carried out in a final volume of 50 μl; all the reagents are prepared in a buffer: • 25 mM HEPES/NaOH pH 7.6 • 5 mM MgCl2 • 2 mM MnCl2 • 50 μM Na2VO4 5 μl of the 10-times concentrated inhibitor are added to 25 μl of enzyme (12 U/ml final concentration), (Upstate Biotechnology ref 14-117). After incubation for 5 minutes at ambient temperature, 10 μl of PolyGluTyr 4/1 (150 ng/ml final concentration) and 10 μl of ATP (5 μM final concentration) are added. The detection is carried out after incubation for 20 minutes at ambient temperature. • Results obtained expressed as percentage inhibition at 20 μM • Example 8 98% • Example 15 99% • Example 20 99% • Example 24 99% • Example 27 95% • Example 30 99% • Example 32 100% • Example 38 95% 3) Assay for Inhibition of CDK2 Activity

ZAP kinase = target: T2, ZAP kinase (Homo sapiens, UniProt P43403); test: Assay for inhibition of ZAP kinase activity; details: fluorescence polarization, read-out: percentage inhibition at 20 μM
T2 construct: purchased Panvera P2782
T2 sequence (P43403 1-619): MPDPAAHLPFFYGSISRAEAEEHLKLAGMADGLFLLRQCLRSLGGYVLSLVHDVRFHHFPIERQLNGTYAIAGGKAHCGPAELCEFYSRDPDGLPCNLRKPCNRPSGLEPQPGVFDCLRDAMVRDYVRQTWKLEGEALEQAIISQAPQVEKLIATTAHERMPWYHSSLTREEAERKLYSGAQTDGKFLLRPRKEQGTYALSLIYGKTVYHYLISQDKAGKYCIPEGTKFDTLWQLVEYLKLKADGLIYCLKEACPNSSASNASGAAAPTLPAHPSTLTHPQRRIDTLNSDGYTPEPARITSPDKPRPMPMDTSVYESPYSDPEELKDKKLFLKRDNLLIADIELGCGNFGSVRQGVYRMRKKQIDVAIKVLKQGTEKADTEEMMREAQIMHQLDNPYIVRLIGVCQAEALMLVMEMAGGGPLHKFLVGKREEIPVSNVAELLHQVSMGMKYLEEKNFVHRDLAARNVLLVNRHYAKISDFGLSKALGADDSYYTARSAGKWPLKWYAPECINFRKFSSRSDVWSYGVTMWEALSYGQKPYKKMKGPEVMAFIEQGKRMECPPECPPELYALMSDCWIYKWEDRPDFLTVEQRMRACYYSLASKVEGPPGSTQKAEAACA
Description: The inhibition of the kinase activity is determined by fluorescence polarization, the ZAP kinase phosphorylates a peptide detected by adding an anti-phosphopeptide antibody coupled to a fluorescent label.
The assay is carried out in a final volume of 50 μl; all the reagents are prepared in a buffer: • 20 mM Tris/HCl pH 7.7 • 7 mM MnCl2 • 50 μM Na2VO4 5 μl of the 10-times concentrated inhibitor are added to 25 μl of enzyme (0.7 μg/ml final concentration) (Panvera ref P2782). After incubation for 5 minutes at ambient temperature, 10 μl of PolyGT (300 ng/ml final concentration) and 10 μl of ATP (0.25 μM final concentration) are added. The detection is carried out after incubation for 15 minutes at ambient temperature. • Results obtained expressed as percentage inhibition at 20 μM • Example 8 98% • Example 20 95% • Example 24 96% 7) Assay for Inhibition of Casein Kinase II Activity

[2] = CaCiv1 with Cdk2 substrate, [33P]ATP, 30 min ambient temperature, read-out: IC50 as micromolar

CaCiv1, sequence (A0A1D8PH53 entry or part of it): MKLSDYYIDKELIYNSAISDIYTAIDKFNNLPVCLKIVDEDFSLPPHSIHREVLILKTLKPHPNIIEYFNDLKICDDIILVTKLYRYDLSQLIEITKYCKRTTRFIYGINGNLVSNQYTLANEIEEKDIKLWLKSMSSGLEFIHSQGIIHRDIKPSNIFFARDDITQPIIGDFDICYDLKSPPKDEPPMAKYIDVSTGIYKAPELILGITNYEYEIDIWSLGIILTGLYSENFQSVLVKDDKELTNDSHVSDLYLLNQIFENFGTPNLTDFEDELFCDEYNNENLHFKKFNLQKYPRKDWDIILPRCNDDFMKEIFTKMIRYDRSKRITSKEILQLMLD
GSK3beta, sequence (P49841 whole entry, species assumed): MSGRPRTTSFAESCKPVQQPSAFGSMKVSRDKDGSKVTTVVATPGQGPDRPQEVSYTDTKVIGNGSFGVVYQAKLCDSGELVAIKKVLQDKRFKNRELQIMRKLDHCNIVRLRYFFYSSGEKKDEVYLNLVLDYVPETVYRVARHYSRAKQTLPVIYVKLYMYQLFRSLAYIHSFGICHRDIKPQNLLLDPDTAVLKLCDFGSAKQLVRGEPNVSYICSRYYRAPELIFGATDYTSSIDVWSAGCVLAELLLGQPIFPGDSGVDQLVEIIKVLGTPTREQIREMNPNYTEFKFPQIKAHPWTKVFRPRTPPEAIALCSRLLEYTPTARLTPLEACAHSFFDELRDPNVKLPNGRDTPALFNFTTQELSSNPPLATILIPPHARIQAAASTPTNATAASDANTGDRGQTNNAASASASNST
JNK3 kinase, sequence (P53779 whole entry): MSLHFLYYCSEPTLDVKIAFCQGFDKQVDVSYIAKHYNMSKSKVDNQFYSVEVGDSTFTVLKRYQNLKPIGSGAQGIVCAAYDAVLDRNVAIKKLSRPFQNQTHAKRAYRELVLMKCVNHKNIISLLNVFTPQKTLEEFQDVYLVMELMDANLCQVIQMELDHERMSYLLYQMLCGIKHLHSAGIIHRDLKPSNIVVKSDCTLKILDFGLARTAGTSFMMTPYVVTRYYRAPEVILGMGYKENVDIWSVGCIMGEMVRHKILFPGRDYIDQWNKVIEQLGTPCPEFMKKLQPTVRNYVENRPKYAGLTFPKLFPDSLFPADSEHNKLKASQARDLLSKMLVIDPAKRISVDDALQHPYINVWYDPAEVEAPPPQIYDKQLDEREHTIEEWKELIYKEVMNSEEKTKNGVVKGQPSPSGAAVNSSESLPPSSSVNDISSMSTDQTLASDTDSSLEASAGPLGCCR
PLK1, sequence (P53350 whole entry, species assumed): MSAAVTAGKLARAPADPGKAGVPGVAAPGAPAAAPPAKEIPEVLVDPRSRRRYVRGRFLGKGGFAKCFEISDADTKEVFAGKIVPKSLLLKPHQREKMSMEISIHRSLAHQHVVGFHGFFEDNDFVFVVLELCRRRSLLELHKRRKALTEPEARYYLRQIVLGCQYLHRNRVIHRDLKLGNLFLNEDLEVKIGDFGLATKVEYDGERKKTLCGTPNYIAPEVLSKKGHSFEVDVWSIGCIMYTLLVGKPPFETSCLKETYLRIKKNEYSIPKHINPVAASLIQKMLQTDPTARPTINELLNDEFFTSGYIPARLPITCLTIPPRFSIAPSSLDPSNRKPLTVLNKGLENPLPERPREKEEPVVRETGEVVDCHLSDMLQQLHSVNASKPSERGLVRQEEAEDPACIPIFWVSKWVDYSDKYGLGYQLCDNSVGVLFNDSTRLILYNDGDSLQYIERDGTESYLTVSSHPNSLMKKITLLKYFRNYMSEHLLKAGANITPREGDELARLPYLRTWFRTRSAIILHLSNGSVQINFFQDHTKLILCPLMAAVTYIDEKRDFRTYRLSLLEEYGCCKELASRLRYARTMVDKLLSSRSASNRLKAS
T1 sequence (P12931 whole entry): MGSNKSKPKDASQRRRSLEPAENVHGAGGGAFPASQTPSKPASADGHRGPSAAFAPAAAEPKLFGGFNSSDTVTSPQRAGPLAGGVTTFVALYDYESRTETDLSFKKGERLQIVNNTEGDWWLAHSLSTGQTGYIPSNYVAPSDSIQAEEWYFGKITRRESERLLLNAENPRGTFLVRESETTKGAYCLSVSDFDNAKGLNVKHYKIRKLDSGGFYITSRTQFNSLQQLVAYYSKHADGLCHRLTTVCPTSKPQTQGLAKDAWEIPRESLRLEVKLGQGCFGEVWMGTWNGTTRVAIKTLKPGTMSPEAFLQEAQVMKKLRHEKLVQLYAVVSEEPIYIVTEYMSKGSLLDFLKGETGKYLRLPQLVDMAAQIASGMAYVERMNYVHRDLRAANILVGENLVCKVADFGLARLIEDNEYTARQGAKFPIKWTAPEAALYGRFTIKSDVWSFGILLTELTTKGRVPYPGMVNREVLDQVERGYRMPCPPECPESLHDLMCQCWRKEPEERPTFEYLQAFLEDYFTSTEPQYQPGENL

| Compound | percentage inhibition at 20 μM (Abl kinase) [%] | IC50 (GSK3beta) [µM] | IC50 (JNK3 kinase) [µM] | IC50 (PLK1) [µM] | IC50 (CaCiv1; [2]) [µM] | other results |
| --- | --- | --- | --- | --- | --- | --- |
| Cl.Cl.N[C@H]1CC[C@H](Nc2nc(-n3cnc4ccccc43)c3nc[nH]c3n2)CC1 [Example 2, Trans-N-[6-(1H-benzimidazol-1-yl)-9H-purin-2-yl]-1,4-cyclohexanediamine dihydrochloride] | 100 | 0.6 |  |  |  | inhibition at 20 µM [1]: 97%; IC50 (CaCiv1): 0.5 µM |
| Trans-N-[6-(5,6-dichloro-2,3-dihydro-1H-indol-1-yl)-9H-purin-2-yl]-1,4-cyclohexanediamine dihydrochloride [Example 1] |  |  | 0.29 | 0.21 | 0.8 |  |
| O[C@H]1CC[C@H](Nc2nc(-n3cnc4ccccc43)c3nc[nH]c3n2)CC1 [Example 24, Trans-4-[[6-(1H-benzimidazol-1-yl)-9H-purin-2-yl]amino]cyclohexanol] | 100 |  |  |  | 0.39 | inhibition at 20 µM (SRC kinase): 99%; inhibition at 20 µM (ZAP kinase): 96% |
| OCC(CO)Nc1nc(-n2cnc3ccccc32)c2nc[nH]c2n1 [Example 18, 2-[[6-(1H-benzimidazol-1-yl)-9H-purin-2-yl]amino]-1,3-propanediol] |  |  |  | 0.16 | 3.9 |  |
| CC1Cc2ccccc2N1c1nc(N[C@H]2CC[C@H](N)CC2)nc2[nH]cnc12 (stereo partly drawn) [Example 26, dihydrochloride] |  | 1.3 | 0.31 |  |  |  |
